In patent publication US20130261133A1, “Therapeutic Compounds for Protozoal and Microbial Infections and Cancer” (THE UNIVERSITY OF MONTANA, priority 2012, published 2013):
≈ marks a conversion by molar mass, not a printed value. Where “and” joins values, the source holds several entries; their conditions need not be identical. Equal entries are not always repeated. Where two headings read alike, the source gives them in different places.

Assays:
[1] = tested on: P. falciparum clone W2/Indochina; assay: In vitro malaria assay, [3H]-hypoxanthine incorporation; assay type: cell-based; conditions: Plasmodium falciparum, W2, 72 h, read-out: IC50 Plasmodium
Description: a. In vitro Parasite Culturing: P. falciparum clone W2/Indochina was grown in continuous culture using RPMI 1640 media containing 10% heat-inactivated type A+ human plasma, sodium bicarbonate (2.4 g/L), HEPES (5.94 g/L) and 4% washed human type A+ erythrocytes. Cultures were gassed with a 90% N2, 5% O2 and 5% CO2 mixture followed by incubation at 37° C. b. Assay Preparation: Test compounds at 5 mg/mL in DMSO were diluted 1:500 and then serially diluted in duplicate over 11 concentrations. P. falciparum cultures with >70% ring stage parasites were diluted to 0.5-0.7% parasitemia and 1.5% hematocrit in RPMI 1640 media. In 96-well plates a volume of 90 μl/well of parasitized erythrocytes was added on top of 10 μL/well of the test compound. A separate plate containing chloroquine, dihydroartemisinin and atovaquone was added to each set of assay plates as control drugs. A Beckman Coulter Biomek 3000 was used to dispense test compounds, control drugs and parasitized erythrocytes into the microtiter plates. Positive and negative controls were included in each plate. Positive controls consisted of parasitized erythrocytes and negative controls consisted of non-parasitized erythrocytes at 1.5% hematocrit in RPMI 1640 media. Assay plates were placed into a modulator incubator chamber and equilibrated with 90% N2, 5% O2 and 5% CO2 mixture then incubated at 37° C. for 48 hours. After 48 hours, approximately 0.05 μCi of [^3H]-hypoxanthine monohydrochloride was added to each well of the assay plates. Plates were put back into the modulator incubation chamber, gassed with the 90% N2, 5% O2 and 5% CO2 mixture then incubated at 37° C. for an additional 24 hours. After 72 hours total incubation time the plates were frozen at −80° C. until later processed for parasite growth determinations. c. Assay Plate Processing: Assay plates were harvested using a Perkin Elmer FilterMate Harvester. The incorporation of [^3H]-hypoxanthine into nucleic acid was measured using a Perkin Elmer Topcount NXT Microplate Scintillation & Luminescence Counter. d. Data Analysis: Data analysis was performed using a custom database manager (Dataspects, Inc). Nonlinear regression analysis was used to calculate EC50.

Leishmania amazonensis = assay: Antileishmanial assay, Leishmania in infected macrophages (L. amazonensis); conditions: for IC50: Leishmania amazonensis, Macrophage
[2] = tested on: Leishmania donovani in infected macrophages; conditions: Senn et al. 2007; read-out: IC50 against Leishmania donovani in infected macrophages; cited from earlier work
C. glabrata = assay: MIC broth microdilution, Alamar Blue; assay type: cell-based; conditions: minimum inhibitory concentration
C. albicans = assay: MIC broth microdilution, Alamar Blue; assay type: cell-based; conditions: minimum inhibitory concentration
B. subtilis = assay: MIC broth microdilution, Alamar Blue; assay type: cell-based; conditions: minimum inhibitory concentration
P. aeruginosa = assay: MIC broth microdilution, Alamar Blue; assay type: cell-based; conditions: minimum inhibitory concentration
S. pyogenes = assay: MIC broth microdilution, Alamar Blue; assay type: cell-based; conditions: minimum inhibitory concentration
E. faecalis = assay: MIC broth microdilution, Alamar Blue; assay type: cell-based; conditions: minimum inhibitory concentration
HepG2 cells = assay: Cytotoxicity against human liver (HepG2) cells, Alamar Blue; assay type: cell-based
Description: Several of these analogues were also evaluated for cytotoxicity against human liver (HepG2) cells. Of particular interest was that compounds 47 and 48 were approximately an order of magnitude less cytotoxic as compared to compound 1.
Adherent cell lines were maintained in Eagle's Minimal Essential Media (Sigma-Aldrich, St. Louis, Mo., USA) with 2 mM glutamine and Earle's Balanced Salt Solution (HyClone, Logan, Utah, USA) adjusted to contain 1.5 g/L sodium bicarbonate, 0.1 mM non-essential amino acids, 1 mM sodium pyruvate and 10% fetal calf serum. Fetal calf serum used in these assays was lot matched throughout. All cultures were maintained under a humidified 5% CO2 atmosphere at 37° C., had media refreshed twice weekly and were subcultured by trypsinization and resuspension at a ratio of 1:5 each week. Toxicity assays were conducted between passages 10-20. Target compound toxicity was measured by incubating the test compound with the cells for 4 hours, washing the cells and finally treating the cells with Alamar Blue. After 12-24 hours, the fluorescence of the reduced dye was measured. Fluorescence intensity as a function of test compound concentration was fit to the Fermi equation, using non-linear least squares regression analysis, to estimate IC50 values.

B. anthracis = assay type: cell-based; conditions: minimum inhibitory concentration
S. aureus 13709 = assay: MIC broth microdilution, Alamar Blue; assay type: cell-based; conditions: minimum inhibitory concentration
Leishmania donovani = assay: Antileishmanial assay, Leishmania in infected macrophages (L. donovani); conditions: for Selectivity Index: IC50 for HepG2 cells/IC50 for Leishmania donovani; for IC50: Leishmania donovani, Macrophage
[3] = Body and organ weights of infected, treated BALB/c mice; assay type: in vivo; conditions: for Body weight / Mean body weight of mice Post-treatment: 10 mg/kg i.p.; for Body weight: individual mice, Table 4; for Mean body weight of mice Post-treatment / Mean body weight of mice Pre-treatment: group mean; for Mean body weight of mice Pre-treatment: pre-treatment (baseline)
Description: (§1) Compounds 47, 48, and 50 were then evaluated in animal studies with BALB/c mice with leishmaniasis. Compounds were delivered via i.p. injection at 10 mg/kg, with untreated, vehicle, and miltefosine controls as described in Table 2. […] Miltefosine, the only oral treatment currently available to treat leishmaniasis in humans, was also evaluated in the BALB/c mice for comparison purposes.

[4] = tested on: leishmaniasis (LV82 PM infection), liver parasitemia; assay: In vivo efficacy: liver parasitemia in BALB/c mice with leishmaniasis; conditions: 10 mg/kg i.p.; for LDU mean ± SD: group mean, n=4; for % Reduction (Average) in liver parasitemia: infected BALB/c mice; for # of amastigotes per 200 nuclei: liver; for # of amastigotes per 200 nuclei / LDU: individual mice; for LDU: total liver parasitemia
Description: The following protocols were used to prepare the various treatments described in Table 2: • a. Miltefosine ([…] stock solution in sterile PBS): 7.5 mg miltefosine was weighed and put in a eppendorf tube, then 0.75 mL of sterile PBS was added. After vortexing, a clear solution was formed. Make 1 mg/mL solution daily by diluting 100 μL of 10 mg/mL miltefosine solution in 900 μL sterile PBS. • b. Vehicle control: 5% (v/v) DMSO, 50% (v/v) PEG 400, 10% (v/v) Ethanol, and 35% (v/v) distilled water. • c. Compound 47 (2 mg/mL solution of compound 47 in PEG 400/Ethanol vehicle): […]. Dilute the above solution 1:20 with PEG 400/EtOH/water daily. After vortexing and warming up at 37° C. for 30 min., a clear solution formed. • d. Compound 48 (2 mg/mL solution of compound 48 in PEG 400/Ethanol vehicle): 6.8 mg of compound 48 was dissolved in 0.17 mL of DMSO to make a 40 mg/mL stock solution. After vortexing, a yellowish-brown solution was formed. Diluted the above solution 1:20 with PEG 400/EtOH/water daily. After vortexing a clear solution formed. • e. Compound 50 (2 mg/mL solution of compound 50 in PEG 400/Ethanol vehicle): 8.4 mg of compound 50 was dissolved in 0.21 mL of DMSO to make a 40 mg/mL stock solution. After vortexing, a dark yellowish-brown solution was formed. Diluted the above solution 1:20 with PEG 400/EtOH/water. After vortexing a clear solution formed.
as §1

[5] = read-out: IC50 Leishmania in infected macrophages
[6] = read-out: IC50 against Leishmania amazonensis
[7] = HepG2, read-out: IC50 against the HepG2 cell line
[8] = HepG2, read-out: IC50 mammalian HepG2 cells

Structure (SMILES) | IC50 [1] | IC50 (Leishmania amazonensis; [5]) | IC50 (Leishmania amazonensis; [6]) | MIC C. glabrata (C. glabrata) | MIC C. albicans (C. albicans) | MIC B. subtilis (B. subtilis) | MIC P. aeruginosa (P. aeruginosa) | MIC S. pyogenes (S. pyogenes) | MIC E. faecalis (E. faecalis) | IC50 (HepG2 cells; [7]) | IC50 (HepG2 cells; [8]) | MIC B. anthracis (B. anthracis) | MIC S. aureus (S. aureus 13709) | Selectivity Index (Leishmania donovani) | IC50 (Leishmania donovani; [5]) | Body weight [3] | Mean body weight of mice Post-treatment [3] | Mean body weight of mice Pre-treatment [3] | LDU mean ± SD [4] | % Reduction (Average) in liver parasitemia [4] | also measured
C=CC(C#CC#CC(O)CCCCCCCCC)OC(C)=O [(S,S)-1, 8-hydroxyheptadeca-1-ene-4,6-diyn-3-yl acetate, reference compound] | 0.27 µg/mL | 1280 nM | 1280 nM | – | – | – | – | – | – | – | – | – | – | – | – | – | – | – | – | – | IC50 [2]: 320 nM
C=C[C@@H](C#CC#C[C@H](O)CCCCCCCCC)OC(C)=O [Compound 1, (3S,8R)-8-hydroxyheptadeca-1-en-4,6-diyn-3-yl acetate] | 0.341 µg/mL | 626 nM | 630 nM | >1000 | >1000 | 8 | >1000 | 8 | 32 | 35000 ± 3000 nM | 35000 ± 3000 nM | 4 | >1000 | – | – | – | – | – | – | – | Selectivity Index (Leishmania amazonensis; IC50 for HepG2 cells/IC50 for Leishmania amazonensis): 60
C=C[C@@H](C#CC#C[C@@H](CCCCCCCCC)NCCCC)OC(C)=O [Compound 48, (3S,8R)-8-(butylamino)heptadeca-1-en-4,6-diyn-3-yl acetate] | 5.72 µg/mL | – | – | >1000 | 1000 | 125 | >1000 | 250 | 500 | 342000 ± 46000 nM | 342000 ± 46000 nM | 250 | 500 | 10,000 | 34 nM | 17.2 g and 19.2 g and 19.8 g and 19.0 g | 18.8 g | 19.3 g | 2721.9 | 32.4% | % Reduction (Average) in liver parasitemia ([4]; listed as compound 48): 32%; # of amastigotes per 200 nuclei [4]: 536 and 529 and 498 and 476; LDU [4]: 2541.4 and 2830.2 and 2913.1 and 2603.0
C=C[C@H](O)C#CC#C[C@H](O)CCCCCCCCC [Compound 50, (3S,8R)-heptadeca-1-en-4,6-diyne-3,8-diol] | 0.271 µg/mL (≈ 1.03 µM) | – | – | 8 | 16 | 2 | 4 | 8 | 16 | 38000 ± 2000 nM | 38000 ± 2000 nM | 1000 | 16 | 2900 | 13 nM | 15.7 g and 14.6 g and 14.1 g and 13.4 g | 14.5 g | 16.3 g | 2367.2 | 41.2% | IC50 (Leishmania donovani; read-out: IC50 anti-Leishmanial): 13 nM; % Reduction (Average) in liver parasitemia ([4]; listed as compound 50): 41%; # of amastigotes per 200 nuclei [4]: 628 and 557 and 643 and 612; LDU [4]: 2737.5 and 2143.9 and 2654.9 and 1932.7
